Source: patent US6541208B1, “Diagnostic method for distinguishing HIV-associated dementia from other forms of dementia” (University of Maryland Biotechnology Institute, priority 1998, dated 2003)

How the values were obtained:
[1] = system: astrocytic MCP-1 expression; test: Northern blot analysis of MCP-1 RNA in stimulated human astrocytes; assay type: cell-based
Description: FIG. 1A—Total RNA was extracted from T lymphoblastoid HUT 78 cells (ATCC), and from variously treated human astrocytes. Ten μg per lane were then run on a 1% agarose-6% formaldehyde gel. Following transfer of RNA to nitrocellulose, the blot was probed with the full-length cDNA for MCP-1, and subsequently, RANTES. RNA from untreated astrocytes was run in lanes 2 and 4. […] Astrocytic expression of RANTES was not detected.
FIG. 1B—Similar experience except that RNA from HUT 78 cells (lane 1) was compared to RNA from astrocytes that were unstimulated (lane 2) or stimulated for 2 hr with 100 nM Tat (lane 3), 25 μM TPCK followed by 100 nM Tat (lane 4) or 25 μM TPCK (lane 5).
Brain tissue from 12-14 wk human fetuses was obtained in accordance with NIH guidelines. The tissue was mechanically disrupted by aspiration through a 19-gauge needle, washed in Eagle's minimal essential medium (EMEM) and then distributed into tissue culture flasks. Cells were maintained in EMEM containing 10% fetal bovine serum, 2 mM L-glutamine and 5 μg/ml gentamicin. Several days later, flasks were placed into an orbital incubator shaker at 37° C. and 210 rpm for 6 hr. Non-adherent cells were removed. A portion of the adherent cells were later stained with an antibody to glial fibrallary acidic protein and only those cultures which were >95% positive were used. […]

MCP-1 activity = conditions: point mutations Thr-10 to Arg and Tyr-13 to Ile; cited from earlier work

Compound: Cc1ccc(S(=O)(=O)N[C@@H](Cc2ccccc2)C(=O)CCl)cc1 [TPCK, n-tosli-L-phenylalanine chloromethyl ketone, reference compound]
- effect on Tat-induced increase in MCP-1 encoding RNA ([1]; 25 μM TPCK followed by 100 nM Tat, 2 hr): inhibited

Compound: MCP-1 protein with point mutations of Thr-10 to Arg and Tyr-13 to Ile: mutant MCP-1 protein from Beal et al., contemplated as MCP-1 antagonist
- MCP-1 activity of the mutant protein (MCP-1 activity): greatly reduced MCP-1 activity

Compound: interleukin-1β: cytokine used at 5 ng/ml to stimulate astrocytes [reference compound]
- astrocytic MCP-1 expression (MCP-1 encoding RNA) ([1]; 5 ng/ml interleukin-1β, 4 hr stimulation, human astrocytes): increase in astrocytic MCP-1 expression
